Results from US20160175241A1, “COMPOSITION FOR SKIN ANTI-AGEING TREATMENT” (POLICHEM SA, priority 2013, published 2016).

Tests used:
[1] = test system: Reactive oxygen species (ROS) measured on keratinocytes after exposure to Ultraviolet light A (UVA); assay: ROS formation in keratinocytes after UVA exposure (DCA fluorescence); type: cell-based; details: Homo sapiens, Keratinocyte, light or radiation study, 0.15 mg/ml (positive control)
Procedure: To the test the different antioxidant activity of the composition according to the Example 1 versus the Comparative Compositions 2-5 of the Example 2, they were tested at different concentrations (0.500-0.016 mg/ml) on Reactive oxygen species (ROS) measured on keratinocytes after exposure to Ultraviolet light A (UVA), with and without the tested sample, evaluating the cell viability after UVA stress by Neutral red uptake (NRU) test: cell survival assay using cultured human keratinocytes in monolayer cultures with and without the tested sample.
Human primary keratinocytes come from paediatric foreskins, with ethic committee's permission, from pre-planned routine surgery. The epidermis was separated from dermis by incubation with […] and trypsinized to generate single cell suspension.
Keratinocytes were cultivated in Dulbecco's modified Eagle's and Ham's F12 media (3:1) enriched with 10% foetal calf serum (v/v) and specific enrichments.
These cells multiply in culture until a cell monolayer is reached. […] Once a confluence of 60-70% has been reached, fresh medium is added with scalar dilutions of the tested sample. Non-treated cells are used as negative controls. At this stage the cell cultures were treated with different dilutions of the test compound and of the controls to obtain final concentrations ranging from 0.5 to 0.016 mg/ml. For each dilution, three replicate tests were performed. The product was dissolved in the culture medium. […] The cell vitality is determined after UVA exposure and without UV exposure.
After having exposed the cells to the tested sample, the cell culture medium is removed and the cells are washed in PBS. […] DCA is reacting with free radicals in the medium, originating a fluorescent derivative, and the fluorimeter reading allows obtaining a quantitative data related to the ROS content in the cells.
After suitable incubation, the DCA solution has been discharged and the cells have then been exposed for different times to UVA irradiation and soon after read in the fluorimeter, as described (Toxicol. Letters 1997-93:47-54).

[2] = test system: skin structure and firmness; details: two concentrations, 0.1% and 1%; cited from earlier work

SMILES	inhibition at 150 µg/mL ([1]; 4′ UVA (1 J/cm2))	inhibition at 150 µg/mL ([1]; 8′ UVA (2 J/cm2))	inhibition at 150 µg/mL ([1]; 12′ UVA (3 J/cm2))	improving skin structure and firmness [2]
O=C1O[C@H]([C@@H](O)CO)C(O)=C1O [Vitamin C]	19.6%	13.4%	14.8%	
COc1cc(O)c(CC=C(C)C)c(O)c1C(=O)/C=C/c1ccc(O)cc1 [xanthohumol]				resulted efficacious
